Laboratory results: patent US20180141962A1, “AZACARBAZOLE BTK INHIBITORS” (MERCK SHARP & DOHME CORP., priority 2015, published 2018)

Target: T1, BTK enzyme (recombinant full-length BTK, hBTK) (Homo sapiens, UniProt Q06187)
T1 construct: recombinant protein from baculovirus-transfected Sf9 cells: full-length BTK, 6HIS-tag cleaved; 6HIS (cleaved yes); made in house; host or cells: baculovirus-transfected Sf9 cells
Test: Btk enzyme activity assay, LANCE TR-FRET
Format: biochemical
Details: 50 pM hBTK, 2 μM biotin-A5-peptide, 25 μM ATP; 60 minute compound & enzyme incubation; 120 minutes reaction; read-out: BTK binding potency IC50
Method: Btk Enzyme Activity Assay Methods
BTK enzymatic activity was determined with the LANCE (Lanthanide Chelate Excite) TR-FRET (lime-resolved fluorescence resonance energy transfer) assay. […] Phosphorylation reactions were allowed to proceed for 120 minutes. […] After 60 minutes incubation with detection reagents, reaction plates were read on a PerkinElmer EnVision plate reader using standard TR-FRET protocol. Briefly, excitation of donor molecules (Eu-chelate:anti-phospho-antibody) with a laser light source at 337 nm produces energy that can be transferred to Dylight-650 acceptor molecules if this donor:acceptor pair is within close proximity. Fluorescence intensity at both 665 nm (acceptor) and 615 nm (donor) are measured and a TR-FRET ratio calculated for each well (acceptor intensity/donor intensity). IC50 values were determined by 4 parameter robust fit of TR-FRET ratio values vs. (Log10) compound concentrations.

T1 sequence (Q06187 whole entry): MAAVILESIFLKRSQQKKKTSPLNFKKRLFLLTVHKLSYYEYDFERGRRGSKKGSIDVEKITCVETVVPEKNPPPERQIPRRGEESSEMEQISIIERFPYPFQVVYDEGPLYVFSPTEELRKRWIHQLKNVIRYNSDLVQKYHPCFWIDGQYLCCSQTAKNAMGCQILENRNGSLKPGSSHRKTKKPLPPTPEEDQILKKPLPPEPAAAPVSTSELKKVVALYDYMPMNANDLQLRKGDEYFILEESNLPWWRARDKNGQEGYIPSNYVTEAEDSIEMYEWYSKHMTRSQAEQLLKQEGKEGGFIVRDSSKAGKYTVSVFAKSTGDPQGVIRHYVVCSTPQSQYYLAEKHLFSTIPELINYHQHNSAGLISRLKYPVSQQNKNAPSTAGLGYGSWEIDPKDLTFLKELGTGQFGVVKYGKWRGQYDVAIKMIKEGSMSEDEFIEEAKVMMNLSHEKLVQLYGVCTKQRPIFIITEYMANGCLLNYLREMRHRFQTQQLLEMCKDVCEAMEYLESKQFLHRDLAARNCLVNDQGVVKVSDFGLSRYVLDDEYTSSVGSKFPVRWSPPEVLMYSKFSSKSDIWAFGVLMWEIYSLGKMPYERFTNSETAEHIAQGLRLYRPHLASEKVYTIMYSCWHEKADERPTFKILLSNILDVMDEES

| SMILES | IC50 |
| --- | --- |
| CN1CCC(c2ccc3[nH]c4c(C(N)=O)cnc(N5CCCC6(CCNC6=O)C5)c4c3c2)CC1 (centres unmarked) [Example 60, 8-(1-methylpiperidin-4-yl)-1-(1-oxo-2,7-diazaspiro[4.5]dec-7-yl)-5H-pyrido[4,3-b]indole-4-carboxamide] | 76.9 nM |
| NC(=O)c1cnc(N2CCC[C@@]3(CCCN(c4ccc(F)cc4)C3=O)C2)c2c1[nH]c1ccc(C(=O)O)cc12 [Example 8, 4-carbamoyl-1-[(6R)-8-(4-fluorophenyl)-7-oxo-2,8-diazaspiro[5.5]undec-2-yl]-5H-pyrido[4,3-b]indole-8-carboxylic acid] | 12.6 nM |
| CC(=O)N1CCC(c2ccc3c(c2)[nH]c2c(C(N)=O)cnc(N4CCCC5(CCNC5=O)C4)c23)CC1 (centres unmarked) [Example 58, 7-(1-acetylpiperidin-4-yl)-1-(1-oxo-2,7-diazaspiro[4.5]dec-7-yl)-5H-pyrido[4,3-b]indole-4-carboxamide] | 1.4 nM |
| NC(=O)c1cnc(N2CCC3(CC2)CNC3)c2c1[nH]c1ccccc12 [Example 19, 1-(2,7-diazaspiro[3.5]non-7-yl)-5H-pyrido[4,3-b]indole-4-carboxamide] | 22 nM |
| NC(=O)c1cnc(N2CCC3(CCCN(c4ccc(F)cc4)C3=O)C2)c2c1[nH]c1ccccc12 (centres unmarked) [Example 33, 1-[7-(4-fluorophenyl)-6-oxo-2,7-diazaspiro[4.5]dec-2-yl]-5H-pyrido[4,3-b]indole-4-carboxamide] | 212 nM |
| COc1cc(-c2ccc3c(c2)[nH]c2c(C(N)=O)cnc(N4CCC[C@@]5(CCN(C)C5=O)C4)c23)ccn1 [Example 75, 7-(2-methoxypyridin-4-yl)-1-[(5R)-2-methyl-1-oxo-2,7-diazaspiro[4.5]dec-7-yl]-5H-pyrido[4,3-b]indole-4-carboxamide] | 9.5 nM |
| NC(=O)c1cnc(N2CCC[C@@]3(CCNC3=O)C2)c2c1[nH]c1cc(-c3cc[nH]c(=O)c3)ccc12 [Example 70, 1-[(5R)-1-oxo-2,7-diazaspiro[4.5]dec-7-yl]-7-(2-oxo-1,2-dihydropyridin-4-yl)-5H-pyrido[4,3-b]indole-4-carboxamide] | 5.4 nM |
| CC(C)(O)CN1CCC(c2ccc3c(c2)[nH]c2c(C(N)=O)cnc(N4CCCC5(CCNC5=O)C4)c23)CC1 (centres unmarked) [Example 54, 7-[1-(2-hydroxy-2-methylpropyl)piperidin-4-yl]-1-(1-oxo-2,7-diazaspiro[4.5]dec-7-yl)-5H-pyrido[4,3-b]indole-4-carboxamide] | 1.2 nM |
| CC(C)N1CCC(c2ccc3c(c2)[nH]c2c(C(N)=O)cnc(N4CCC[C@@]5(CCNC5=O)C4)c23)CC1 [Example 71, 7-[1-(1-methylethyl)piperidin-4-yl]-1-[(5R)-1-oxo-2,7-diazaspiro[4.5]dec-7-yl]-5H-pyrido[4,3-b]indole-4-carboxamide] | 0.83 nM |
| NC(=O)c1cnc(N2CCCC3(CCCN(c4ccc(F)cc4)C3=O)C2)c2c1[nH]c1ccccc12 (centres unmarked) [Example 4, 1-[8-(4-fluorophenyl)-7-oxo-2,8-diazaspiro[5.5]undec-2-yl]-5H-pyrido[4,3-b]indole-4-carboxamide] | 17 nM |
| CC(C)N1CCCC2(CCCN(c3ncc(C(N)=O)c4[nH]c5ccccc5c34)C2)C1=O (centres unmarked) [Example 39, 1-[8-(1-methylethyl)-7-oxo-2,8-diazaspiro[5.5]undec-2-yl]-5H-pyrido[4,3-b]indole-4-carboxamide] | 120 nM |
| CC(C)(C)OC(=O)N1CC2(CCCN(c3ncc(C(N)=O)c4[nH]c5ccccc5c34)C2)C1 [Example 28, tert-butyl 6-(4-carbamoyl-5H-pyrido[4,3-b]indol-1-yl)-2,6-diazaspiro[3.5]nonane-2-carboxylate] | 579 nM |
| NC(=O)c1cnc(N2CC3(CCNC3)C2)c2c1[nH]c1ccccc12 [Example 26, 1-(2,6-diazaspiro[3.4]oct-2-yl)-5H-pyrido[4,3-b]indole-4-carboxamide] | 160 nM |
| NC(=O)c1cnc(N2CCCC3(CCCNC3=O)C2)c2c1[nH]c1ccccc12 (centres unmarked) [Example 30, 1-(7-oxo-2,8-diazaspiro[5.5]undec-2-yl)-5H-pyrido[4,3-b]indole-4-carboxamide] | 28 nM |
| CC(C)(C)c1ccc(C(=O)N2CCCC3(CCCCN3c3ncc(C(N)=O)c4[nH]c5ccccc5c34)C2)cc1 (centres unmarked) [Example 25, 1-{8-[(4-tert-butylphenyl)carbonyl]-1,8-diazaspiro[5.5]undec-1-yl}-5H-pyrido[4,3-b]indole-4-carboxamide] | 536 nM |
| COC(=O)CC1CCC(c2ccc3c(c2)[nH]c2c(C(N)=O)cnc(N4CCC[C@@]5(CCN(C)C5=O)C4)c23)CC1 (stereo partly drawn) [Example 81, methyl (4-{4-carbamoyl-1-[(5R)-2-methyl-1-oxo-2,7-diazaspiro[4.5]dec-7-yl]-5H-pyrido[4,3-b]indol-7-yl}cyclohexyl)acetate] | 5.5 nM |

| SMILES | IC50 |
| --- | --- |
| NC(=O)c1cnc(N2CCC[C@]3(C2)C(=O)NC[C@@H]3c2ccccc2)c2c1[nH]c1ccccc12 (single isomer, unassigned) [Example 89, 1-[(trans)-1-oxo-4-phenyl-2,7-diazaspiro[4.5]dec-7-yl]-5H-pyrido[4,3-b]indole-4-carboxamide] | 669 nM |
| CC(C)(C)OC(=O)N1CCC(c2ccc3[nH]c4c(C(N)=O)cnc(N5CCCC6(CCNC6=O)C5)c4c3c2)CC1 (centres unmarked) [Example 46, tert-butyl 4-[4-carbamoyl-1-(1-oxo-2,7-diazaspiro[4.5]dec-7-yl)-5H-pyrido[4,3-b]indol-8-yl]piperidine-1-carboxylate] | 377 nM |
| NC(=O)c1cnc(N2CCCC3(CCNC3=O)C2)c2c1[nH]c1cc(C3CCN(CC(=O)O)CC3)ccc12 (centres unmarked) [Example 59, {4-[4-carbamoyl-1-(1-oxo-2,7-diazaspiro[4.5]dec-7-yl)-5H-pyrido[4,3-b]indol-7-yl]piperidin-1-yl}acetic acid] | 1.6 nM |
| NC(=O)c1cnc(N2CCC[C@@]3(C2)C(=O)NC[C@@H]3O)c2c1[nH]c1ccccc12 [Example 18, 1-[(4R,5S)-4-hydroxy-1-oxo-2,7-diazaspiro[4.5]dec-7-yl]-5H-pyrido[4,3-b]indole-4-carboxamide] | 117 nM |
| CC(C)(C)OC(=O)N1CCC2(C1)CN(c1ncc(C(N)=O)c3[nH]c4ccccc4c13)C2 [Example 21, tert-butyl 2-(4-carbamoyl-5H-pyrido[4,3-b]indol-1-yl)-2,6-diazaspiro[3.4]octane-6-carboxylate] | 435 nM |
| CC(C)N1CCC(c2ccc3c(c2)[nH]c2c(C(N)=O)cnc(N4CCCC5(CCNC5=O)C4)c23)CC1 (centres unmarked) [Example 52, 7-[1-(1-methylethyl)piperidin-4-yl]-1-(1-oxo-2,7-diazaspiro[4.5]dec-7-yl)-5H-pyrido[4,3-b]indole-4-carboxamide] | 0.96 nM |
| CC(C)(C)c1ccc(N2CCC3(CCCN(c4ncc(C(N)=O)c5[nH]c6ccccc6c45)C3)C2=O)cc1 (centres unmarked) [Example 36, 1-[2-(4-tert-butylphenyl)-1-oxo-2,7-diazaspiro[4.5]dec-7-yl]-5H-pyrido[4,3-b]indole-4-carboxamide] | 9530 nM |
| NC(=O)c1cnc(N2CCCC3(C2)OCCN(c2ccc(F)cc2)C3=O)c2c1[nH]c1ccccc12 (centres unmarked) [Example 3, 1-(4-(4-fluorophenyl)-5-oxo-1-oxa-4,8-diazaspiro[5.5]undecan-8-yl)-5H-pyrido[4,3-b]indole-4-carboxamide] | 109 nM |
| CC(C)c1ccc(N2CCCC3(CCCN(c4ncc(C(N)=O)c5[nH]c6ccccc6c45)C3)C2=O)cc1 (centres unmarked) [Example 5, 1-{8-[4-(1-methylethyl)phenyl]-7-oxo-2,8-diazaspiro[5.5]undec-2-yl}-5H-pyrido[4,3-b]indole-4-carboxamide] | 492 nM |
| CC(=O)N1CC2(CCN(c3ncc(C(N)=O)c4[nH]c5ccccc5c34)CC2)C1 [Example 20, 1-(2-acetyl-2,7-diazaspiro[3.5]non-7-yl)-5H-pyrido[4,3-b]indole-4-carboxamide] | 58.6 nM |
| NC(=O)c1cnc(N2CCCC3(CCNC3=O)C2)c2c1[nH]c1cc(C3CCNCC3)ccc12 (stereo in doubt) [Example 63, 1-[(5S)-1-oxo-2,7-diazaspiro[4.5]dec-7-yl]-7-piperidin-4-yl-5H-pyrido[4,3-b]indole-4-carboxamide] | 6.3 nM |
| NC(=O)c1cnc(N2CCCC3(CCNC3=O)C2)c2c1[nH]c1cc(C(=O)O)ccc12 (centres unmarked) [Example 85, 4-carbamoyl-1-(1-oxo-2,7-diazaspiro[4.5]dec-7-yl)-5H-pyrido[4,3-b]indole-7-carboxylic acid] | 448 nM |
| NC(=O)c1cnc(N2CCC[C@]3(C2)C(=O)NC[C@@H]3O)c2c1[nH]c1ccccc12 [Example 24, 1-[(4R,5R)-4-hydroxy-1-oxo-2,7-diazaspiro[4.5]dec-7-yl]-5H-pyrido[4,3-b]indole-4-carboxamide] | 9 nM |
| COC(=O)c1ccc2c(c1)[nH]c1c(C(N)=O)cnc(N3CCCC4(CCNC4=O)C3)c12 (centres unmarked) [Example 83, Methyl 4-carbamoyl-1-(1-oxo-2,7-diazaspiro[4.5]decan-7-yl)-5H-pyrido[4,3-b]indole-7-carboxylate] | 57.2 nM |
| NC(=O)c1cnc(N2CCCC3(CCNC3=O)C2)c2c1[nH]c1cc(C3CCNCC3)ccc12 (stereo in doubt) [Example 64, 1-[(5R)-1-oxo-2,7-diazaspiro[4.5]dec-7-yl]-7-piperidin-4-yl-5H-pyrido[4,3-b]indole-4-carboxamide] | 0.63 nM |

Same assay, conditions: BTK binding potency IC50 (nM), 50 pM hBTK, 2 μM biotin-A5-peptide, 25 μM ATP; 60 minute compound & enzyme incubation; 120 minutes reaction

| SMILES | IC50 |
| --- | --- |
| NC(=O)c1cnc(N2CCCC3(CCNC3=O)C2)c2c1[nH]c1ccccc12 (stereo in doubt) [Example 40, 1-[(5R)-1-oxo-2,7-diazaspiro[4.5]dec-7-yl]-5H-pyrido[4,3-b]indole-4-carboxamide] | 121 nM |
